Values joined by “and” are separate entries in the source; they are usually repeats but may differ in a detail not shown here. Equal values may be shown once. Read-outs that look alike come from different tables or passages of the source.

The target in data set [1] is GPR109A (Homo sapiens, UniProt Q8TDS4). Format: cell-based.
Data set [2] concerns H37Rv. Briefly: microbe, parasite or virus in culture. Format: cell-based, M. tuberculosis. Particulars: Mycobacterium tuberculosis, H37RV, THP-1, 90 h, read-out: H37Rv % Inhibition at 500 nM.
Data set [3] concerns JAL2287. It counts as cell-based, M. tuberculosis.
In data set [4] the test system is MYC431. Format: cell-based, M. tuberculosis.
Data set [5] relates to H37Rv. Format: cell-based, M. tuberculosis.
In data set [6] the test system is H37Rv. Put plainly: microbe, parasite or virus in culture. Format: cell-based, M. tuberculosis. Particulars: Mycobacterium tuberculosis, THP-1, 90 h.
Data set [7] concerns MYC431. Briefly: microbe, parasite or virus in culture. It counts as cell-based, M. tuberculosis. Conditions: Mycobacterium tuberculosis, THP-1, 90 h.
For data set [8], the system named is JAL2287. Put plainly: microbe, parasite or virus in culture. It counts as cell-based, M. tuberculosis. Particulars: Mycobacterium tuberculosis, THP-1, 90 h.
Data set [9] concerns MDR-M. tb (JAL2287). Also on record: species or system M. tuberculosis. Particulars: in vivo.
Data set [10] relates to drug susceptible M. tb (H37Rv). Also on record: species or system M. tuberculosis. Conditions: in vivo.
For data set [11] the following is noted: Balb/C, mouse, in vivo, po, 10 mg/kg.
Data set [12] can be described thus: in vivo. Particulars: Balb/C, mouse.
Data set [13] can be described thus: in vivo. Conditions: Beagle, dog.

Chain of GPR109A (Q8TDS4 whole entry): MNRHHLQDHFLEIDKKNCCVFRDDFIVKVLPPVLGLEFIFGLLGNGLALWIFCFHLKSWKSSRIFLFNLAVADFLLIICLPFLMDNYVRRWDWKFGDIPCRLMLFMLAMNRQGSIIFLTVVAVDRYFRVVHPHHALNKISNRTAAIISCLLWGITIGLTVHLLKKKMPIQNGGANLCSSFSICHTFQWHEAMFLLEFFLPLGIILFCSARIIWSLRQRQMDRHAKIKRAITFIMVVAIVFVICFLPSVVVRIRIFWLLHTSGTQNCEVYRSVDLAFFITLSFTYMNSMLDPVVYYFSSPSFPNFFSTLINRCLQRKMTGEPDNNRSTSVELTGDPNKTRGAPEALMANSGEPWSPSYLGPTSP

Consider `CC(O)CC(=O)O` (stereo not drawn) [Compound 3HBA, 3-hydroxybutyric acid], for which, in [1], the “effect on intracellular cAMP levels” value is “reduces intracellular cAMP levels”.

Consider `COC(C(=O)O)c1ccccc1` (stereo not drawn) [Compound 1060, 2-Methoxy-2-phenylacetic acid], for which the inhibition (commonly the share of the control response that was lost under treatment) at 0.5 µM in data set [2] came to 78%.

Consider `CO[C@@H](C(=O)N1CCOC[C@@H]1C)c1ccccc1` [Compound 1074, (R)-2-Methoxy-1-((S)-3-methylmorpholino)-2-phenylethanone], for which, in [2], the inhibition at 0.5 µM was found to be 24%.

For the compound `CO[C@@H](C(=O)N1CCOC[C@H]1C)c1ccccc1` [Compound 1075, (R)-2-Methoxy-1-((R)-3-methylmorpholino)-2-phenylethanone], the inhibition at 0.5 µM in [2] was determined as 46%.

For `CO[C@@H](C(=O)N1CCO[C@H](C)[C@@H]1C)c1ccccc1` [Compound 1076, (R)-1-((2R,3S)-2,3-Dimethylmorpholino)-2-methoxy-2-phenylethanone], in [2], the inhibition at 0.5 µM came out at 50%.

As for `CO[C@H](C(=O)N1CCOC[C@@H]1C)c1ccccc1` [Compound 1077, (S)-2-Methoxy-1-((S)-3-methylmorpholino)-2-phenylethanone], the inhibition at 0.5 µM in data set [2] was 52%.

Consider `CO[C@@H](C(=O)NC1CCNCC1)c1ccccc1` [Compound 1085, (R)-2-Methoxy-2-phenyl-N-(piperidin-4-yl)acetamide], for which, in data set [2], the inhibition at 0.5 µM was found to be 93%. Also, the “CFU/well (1 × 10^3) After treatment with 1085” value (“CFU/well” below) in [3] is listed as 6.33 ± 3.51 CFU/well (1 × 10^3). For the same compound, in data set [4], the “CFU/well” value is given as 6.00 ± 1.00 CFU/well (1 × 10^3). In data set [5], the “CFU/well” value is listed as 8.66 ± 2.51 CFU/well (1 × 10^3). Also, the EC50 (usually the concentration giving half of the maximal effect) in data set [6] came out at 0.5 nM. The concentration for a half-maximal effect (EC50) in data set [7] was found to be 0.1 nM. In addition, a half-maximal effect in [8] (EC50) was put at 0.1 nM. Also, in data set [9], the “% Reduction of CFU in lung” value was 43.5% and 62.4% and 80.0%; the “% Reduction of CFU in spleen” value was 96.6% and 98.3%; the “CFU/spleen (×10^3)” value is 0.4 ×10^3 and 0.2 ×10^3. In [10], the “CFU/Lung (×10^5)” value was 4.76 ×10^5. In data set [11], this compound showed a Cl of 2 mL/min/kg and a Vd of 0.13 L/kg. Further, the bioavailability (as a rule, dose-corrected exposure relative to a reference, in per cent) in [12] stood at 47%. Besides, in [12] (iv, 1 mg/kg), the AUC (as a rule, concentration integrated over time) amounted to 1.73 µM·h; the Cmax (commonly the maximum level reached in the sampled fluid or tissue) was found to be 3.06 µM; the Tmax (as a rule, the time at which the peak concentration occurs) was 0 h; the Vd turned out to be 0.22 L/kg. Moreover, in data set [12] (iv, 1 mg/kg), the clearance (as a rule, a measure of how efficiently the substance is removed, as volume per time) was 1.33 mL/min/kg and the half-life (commonly the time in which the quantity being followed falls by half) is 1.9 h. Also, in data set [12] (po, 10 mg/kg), the AUC worked out at 8.17 µM·h, the Cmax turned out to be 11.2 µM, the Tmax amounted to 0.2 h and the half-life was 2.8 h. The compound further registered a bioavailability in [13] of 57%. In data set [13] (iv, 0.3 mg/kg), the AUC(0-t) – broadly, exposure summed from dosing to a finite time, without extrapolation to infinity – came to 3.44 µM·h; the Cmax was 2.76 µM; the Tmax was found to be 0 h; the half-life was 3 h. Moreover, in data set [13] (po, 3 mg/kg), the AUC(0-t) turned out to be 19.6 µM·h, the peak level (Cmax) was 3.77 µM, the Tmax came to 1 h and the half-life was 2.5 h.

The values above are taken from patent US10207993B2 (priority 2014, dated 2019).
